Laboratory results taken from PMC2772868 (Biochemistry, 2009).

Experiments:
[1] = target: LacI (lactose repressor protein) (Escherichia coli, UniProt P03023); format: binding
LacI wild-type = LacI wild-type (Escherichia coli, UniProt P03023 1-360); test: filter binding
Sequence of LacI wild-type (P03023 whole entry): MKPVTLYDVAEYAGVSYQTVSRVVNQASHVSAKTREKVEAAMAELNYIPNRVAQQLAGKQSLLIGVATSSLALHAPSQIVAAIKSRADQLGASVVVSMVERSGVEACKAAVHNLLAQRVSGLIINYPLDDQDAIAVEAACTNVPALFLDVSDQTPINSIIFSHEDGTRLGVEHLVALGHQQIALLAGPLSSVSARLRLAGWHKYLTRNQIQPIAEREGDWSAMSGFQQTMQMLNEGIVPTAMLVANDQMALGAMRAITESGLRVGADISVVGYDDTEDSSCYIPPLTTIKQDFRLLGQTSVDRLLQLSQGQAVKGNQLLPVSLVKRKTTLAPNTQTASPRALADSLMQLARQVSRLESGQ

Sequence of LacI (lactose repressor protein) (P03023 whole entry): as above

Row | Molecule | EC50 [1] | Kd (LacI wild-type)
1 | CC(C)S[C@@H]1O[C@H](CO)[C@H](O)[C@H](O)[C@H]1O [IPTG, isopropyl-β-D-thiogalactoside] | 2200 nM | 
2 | 40-bp natural lac operator (dsDNA) DNA 1: TGTTGTGTGGAATTGTGAGCGGATAACAATTTCACACAGG DNA 2: CCTGTGTGAAATTGTTATCCGCTCACAATTCCACACAACA |  | 0.022 ± 0.002 nM
